According to ChEMBL document CHEMBL4680269, “N-benzylpiperidinol derivatives as novel USP7 inhibitors: Structure-activity relationships and X-ray crystallographic studies” (Eur J Med Chem, 2020):
Activity calls are given as the source filed them. The rule behind the calls is not given here.

Legend:
[1] = molecular target: T1, Ubiquitin carboxyl-terminal hydrolase 7 (Homo sapiens, UniProt Q93009); experiment: Inhibition of recombinant human N-terminal His6-tagged full length USP7 expressed in baculovirus infected Sf21 cells at 10 uM using monoubiquitinated ubiquitin-rhodamine as substrate incubated for 30 mins followed by Ub-Rho addition and measured after 2 hrs by spectrophotometry relative to control; conditions: time 2.5 hrs
Target sequence in this assay (Q93009 whole entry, looked up): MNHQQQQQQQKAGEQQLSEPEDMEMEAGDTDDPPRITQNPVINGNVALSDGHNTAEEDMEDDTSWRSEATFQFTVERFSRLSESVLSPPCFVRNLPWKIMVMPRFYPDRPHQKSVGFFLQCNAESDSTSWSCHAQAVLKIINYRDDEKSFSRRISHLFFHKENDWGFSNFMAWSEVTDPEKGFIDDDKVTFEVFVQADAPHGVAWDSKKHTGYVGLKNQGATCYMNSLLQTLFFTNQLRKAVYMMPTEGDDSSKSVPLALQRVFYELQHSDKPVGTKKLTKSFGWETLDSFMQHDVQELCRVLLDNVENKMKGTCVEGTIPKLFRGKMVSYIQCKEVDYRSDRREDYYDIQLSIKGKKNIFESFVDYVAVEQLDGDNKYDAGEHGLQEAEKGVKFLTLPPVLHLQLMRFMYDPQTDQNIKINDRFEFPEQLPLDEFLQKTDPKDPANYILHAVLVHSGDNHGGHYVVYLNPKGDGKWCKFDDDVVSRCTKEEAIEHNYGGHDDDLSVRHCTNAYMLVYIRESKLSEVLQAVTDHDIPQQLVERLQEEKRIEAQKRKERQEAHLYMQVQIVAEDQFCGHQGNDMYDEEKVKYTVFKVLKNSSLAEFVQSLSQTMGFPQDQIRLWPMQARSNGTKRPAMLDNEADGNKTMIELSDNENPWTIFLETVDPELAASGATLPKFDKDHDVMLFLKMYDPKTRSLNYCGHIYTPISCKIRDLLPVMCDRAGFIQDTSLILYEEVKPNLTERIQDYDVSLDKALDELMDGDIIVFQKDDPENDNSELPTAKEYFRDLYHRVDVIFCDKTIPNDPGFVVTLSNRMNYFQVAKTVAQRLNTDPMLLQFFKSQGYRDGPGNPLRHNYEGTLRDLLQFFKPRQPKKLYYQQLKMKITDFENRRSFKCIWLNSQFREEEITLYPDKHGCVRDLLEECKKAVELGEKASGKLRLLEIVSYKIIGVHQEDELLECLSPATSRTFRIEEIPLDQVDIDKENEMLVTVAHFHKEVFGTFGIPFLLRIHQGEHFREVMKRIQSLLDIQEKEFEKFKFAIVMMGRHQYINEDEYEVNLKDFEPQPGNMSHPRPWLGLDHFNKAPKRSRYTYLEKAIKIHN

[2] = molecular target: T1, Ubiquitin carboxyl-terminal hydrolase 7; experiment: Inhibition of recombinant human N-terminal His6-tagged full length USP7 expressed in baculovirus infected Sf21 cells using monoubiquitinated ubiquitin-rhodamine as substrate incubated for 30 mins followed by Ub-Rho addition and measured after 2 hrs by spectrophotometry
Target sequence in this assay (Q93009 whole entry): as the sequence (Q93009 whole entry, looked up) above

Question: How did the inhibition [1] turn out when O=c1c2cnn(-c3ccc(F)cc3)c2ncn1CC1(O)CCN(c2ncccc2F)CC1 was run?
Answer: inactive

Question: O=c1c2cnn(-c3ccc(F)cc3)c2ncn1CC1(O)CCN(Cc2ccc(Br)cc2Cl)CC1 was tested. Which IC50 [2] did it give?
Answer: 1.9 µM

Question: COC(=O)c1ccc(CN2CCC(O)(Cn3cnc4c(Br)n(C)nc4c3=O)CC2)c(Cl)c1 was tested. Which IC50 [2] did it give?
Answer: 0.157 µM

Question: COC(=O)c1ccc(CN2CCC(O)(Cn3cnc4c(cnn4-c4ccc(F)cc4)c3=O)CC2)cc1 was tested. Which IC50 [2] did it give?
Answer: 4.5 µM

Question: O=c1c2cnn(-c3ccc(F)cc3)c2ncn1CC1(O)CCN(c2ccccn2)CC1 was tested. Which inhibition [1] did it give?
Answer: inactive

Question: For O=c1c2cnn(-c3ccc(F)cc3)c2ncn1CC1(O)CCN(Cc2ccccc2Br)CC1, which IC50 [2] is on record?
Answer: 3.1 µM

Question: For O=c1c2cnn(-c3ccc(F)cc3)c2ncn1CC1(O)CCN(c2cccc(C(F)(F)F)n2)CC1, which inhibition [1] is on record?
Answer: inactive

Question: Which inhibition [1] does the source give for O=c1c2cnn(-c3ccc(F)cc3)c2ncn1CC1(O)CCN(c2nccs2)CC1 here?
Answer: inactive

Question: How did the IC50 [2] turn out when COC(=O)c1ccc(CN2CCC(O)(Cn3cnc4c(cnn4-c4ccc(F)cc4)c3=O)CC2)c(F)c1 was run?
Answer: 0.8 µM

Question: With O=c1c2cnn(-c3ccc(F)cc3)c2ncn1CC1(O)CCN(Cc2ccc(Br)cc2)CC1 as the molecule, how does the IC50 [2] read?
Answer: 6.7 µM

Question: COC(=O)c1ccc(CN2CCC(O)(Cn3cnc4c(-c5ccc(CNC(C)=O)cc5)n(C)nc4c3=O)CC2)c(Cl)c1 was tested. Which IC50 [2] did it give?
Answer: 0.121 µM

Question: With O=c1c2cnn(-c3ccc(F)cc3)c2ncn1CC1(O)CCN(c2ncccc2Br)CC1 as the molecule, how does the inhibition [1] read?
Answer: 32%

Question: Which IC50 [2] does the source give for N#Cc1ccccc1CN1CCC(O)(Cn2cnc3c(cnn3-c3ccc(F)cc3)c2=O)CC1 here?
Answer: 8.1 µM

Question: How did the IC50 [2] turn out when O=c1c2cnn(-c3ccc(F)cc3)c2ncn1CC1(O)CCN(Cc2ccc(Cl)cc2Cl)CC1 was run?
Answer: 3.3 µM

Question: O=c1c2cnn(-c3ccc(F)cc3)c2ncn1CC1(O)CCN(Cc2ccccc2F)CC1 was tested. Which IC50 [2] did it give?
Answer: 9.8 µM

Question: How did the IC50 [2] turn out when COC(=O)c1ccc(CN2CCC(O)(Cn3cnc4c(cnn4-c4ccc(F)cc4)c3=O)CC2)c(Br)c1 was run?
Answer: 0.9 µM

Question: Which IC50 [2] does the source give for COC(=O)c1ccc(CN2CCC(O)(Cn3cnc4c(cnn4-c4ccc(F)cc4)c3=O)CC2)c(Cl)c1 here?
Answer: 0.8 µM

Question: With O=c1c2cnn(-c3ccc(F)cc3)c2ncn1CC1(O)CCN(Cc2ccccc2Cl)CC1 as the molecule, how does the IC50 [2] read?
Answer: 3.4 µM

Question: Which IC50 [2] does the source give for N#Cc1cc(Cl)ccc1CN1CCC(O)(Cn2cnc3c(cnn3-c3ccc(F)cc3)c2=O)CC1 here?
Answer: 11.4 µM

Question: How did the inhibition [1] turn out when O=c1c2cnn(-c3ccc(F)cc3)c2ncn1CC1(O)CCN(c2ccc3ccccc3n2)CC1 was run?
Answer: inactive

Question: O=c1c2cnn(-c3ccc(F)cc3)c2ncn1CC1(O)CCN(c2ncccc2Cl)CC1 was tested. Which inhibition [1] did it give?
Answer: 32%

Question: With O=c1c2cnn(-c3ccc(F)cc3)c2ncn1CC1(O)CCN(Cc2ccc([N+](=O)[O-])cc2)CC1 as the molecule, how does the IC50 [2] read?
Answer: 9 µM

Question: For O=c1c2cnn(-c3ccc(F)cc3)c2ncn1CC1(O)CCN(Cc2ccc(Cl)cc2)CC1, which IC50 [2] is on record?
Answer: 8 µM

Question: COC(=O)c1ccc(CN2CCC(O)(Cn3cnc4c(-c5ccc(CNC(=O)OC(C)(C)C)cc5)n(C)nc4c3=O)CC2)c(Cl)c1 was tested. Which IC50 [2] did it give?
Answer: 0.209 µM

Question: O=c1c2cnn(-c3ccc(F)cc3)c2ncn1CC1(O)CCN(Cc2ccc(F)cc2Cl)CC1 was tested. Which IC50 [2] did it give?
Answer: 1.6 µM

Question: O=Cc1cccnc1N1CCC(O)(Cn2cnc3c(cnn3-c3ccc(F)cc3)c2=O)CC1 was tested. Which inhibition [1] did it give?
Answer: inactive

Question: With CCOC(=O)c1csc(N2CCC(O)(Cn3cnc4c(cnn4-c4ccc(F)cc4)c3=O)CC2)n1 as the molecule, how does the inhibition [1] read?
Answer: inactive

Question: How did the inhibition [1] turn out when N#Cc1cccnc1N1CCC(O)(Cn2cnc3c(cnn3-c3ccc(F)cc3)c2=O)CC1 was run?
Answer: inactive

Question: With O=c1c2cnn(-c3ccc(F)cc3)c2ncn1CC1(O)CCN(c2ncccc2I)CC1 as the molecule, how does the inhibition [1] read?
Answer: 32%

Question: O=c1c2cnn(-c3ccc(F)cc3)c2ncn1CC1(O)CCN(c2ncccn2)CC1 was tested. Which inhibition [1] did it give?
Answer: inactive

Question: Which inhibition [1] does the source give for O=Cc1cccc(N2CCC(O)(Cn3cnc4c(cnn4-c4ccc(F)cc4)c3=O)CC2)n1 here?
Answer: inactive
